Laboratory results taken from PubChem BioAssay (NCI).
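GI50 is the concentration that inhibits growth by half. TGI denotes the concentration required for complete inhibition of growth.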

Key:
Assay in all cases: NCI anticancer screen, dose series, 384-well format
HS 578T breast = tested on: HS 578T breast
T-47D breast = tested on: T-47D breast
OVCAR-5 ovarian = tested on: OVCAR-5 ovarian
HOP-62 NSCLC = tested on: HOP-62 NSCLC
MDA-MB-231 breast = tested on: MDA-MB-231 breast
U251 glioblastoma = tested on: U251 glioblastoma
RXF 393 renal = tested on: RXF 393 renal
HL-60(TB) leukemia = tested on: HL-60(TB) leukemia
TK-10 renal = tested on: TK-10 renal
PC-3 prostate = tested on: PC-3 prostate
MOLT-4 leukemia = tested on: MOLT-4 leukemia
M14 melanoma = tested on: M14 melanoma
SN12C renal = tested on: SN12C renal
SK-MEL-28 melanoma = tested on: SK-MEL-28 melanoma
OVCAR-4 ovarian = tested on: OVCAR-4 ovarian
UACC-257 melanoma = tested on: UACC-257 melanoma
NCI-H23 lung = tested on: NCI-H23 lung
SF-295 CNS = tested on: SF-295 CNS
OVCAR-8 ovarian = tested on: OVCAR-8 ovarian
MDA-MB-468 breast = tested on: MDA-MB-468 breast
NCI-H226 lung = tested on: NCI-H226 lung
HCC-2998 colon = tested on: HCC-2998 colon
KM12 colon = tested on: KM12 colon
RPMI-8226 leukemia = tested on: RPMI-8226 leukemia
HCT-15 colon = tested on: HCT-15 colon
SK-OV-3 ovarian = tested on: SK-OV-3 ovarian
A549 NSCLC = tested on: A549 NSCLC
SNB-75 CNS = tested on: SNB-75 CNS
EKVX NSCLC = tested on: EKVX NSCLC
LOX IMVI melanoma = tested on: LOX IMVI melanoma
SR leukemia = tested on: SR leukemia
OVCAR-3 ovarian = tested on: OVCAR-3 ovarian
SF-539 CNS = tested on: SF-539 CNS
SNB-19 CNS = tested on: SNB-19 CNS
NCI-H460 NSCLC = tested on: NCI-H460 NSCLC
SK-MEL-5 melanoma = tested on: SK-MEL-5 melanoma
CAKI-1 renal = tested on: CAKI-1 renal
HOP-92 NSCLC = tested on: HOP-92 NSCLC
NCI/ADR-RES ovarian = tested on: NCI/ADR-RES ovarian
HT29 colon = tested on: HT29 colon
HCT-116 colon = tested on: HCT-116 colon
MCF7 breast = tested on: MCF7 breast
UACC-62 melanoma = tested on: UACC-62 melanoma
IGROV1 ovarian = tested on: IGROV1 ovarian
DU-145 prostate = tested on: DU-145 prostate
ACHN renal = tested on: ACHN renal
BT-549 breast = tested on: BT-549 breast
A498 renal = tested on: A498 renal
NCI-H522 lung = tested on: NCI-H522 lung
MDA-MB-435 melanoma = tested on: MDA-MB-435 melanoma
NCI-H322M lung = tested on: NCI-H322M lung
SF-268 CNS = tested on: SF-268 CNS
COLO 205 colon = tested on: COLO 205 colon
MALME-3M melanoma = tested on: MALME-3M melanoma

`COc1cc2c(cc1-c1c(C)noc1C)ncc1[nH]c(=O)n([C@H](C)c3ccccn3)c12` was tested, and the GI50 (HS 578T breast) was 342 nM, the TGI (HS 578T breast) was 21500 nM and the GI50 (T-47D breast) was 3100 nM. For the same compound, the TGI (T-47D breast) was greater than 100000 nM, the GI50 (OVCAR-5 ovarian) was 392 nM and the TGI (OVCAR-5 ovarian) was 10900 nM. It also gave a GI50 (HOP-62 NSCLC) of 335 nM, a TGI (HOP-62 NSCLC) of 2540 nM and a GI50 (MDA-MB-231 breast) of 910 nM. For the same compound, the TGI (MDA-MB-231 breast) was greater than 100000 nM, the GI50 (U251 glioblastoma) was 3170 nM and the TGI (U251 glioblastoma) was greater than 100000 nM. For the same compound, the GI50 (RXF 393 renal) was 8710 nM, the TGI (RXF 393 renal) was greater than 100000 nM and the GI50 (HL-60(TB) leukemia) was 144 nM. For the same compound, the TGI (HL-60(TB) leukemia) was 277 nM, the GI50 (TK-10 renal) was 575 nM and the TGI (TK-10 renal) was 12400 nM. The GI50 (PC-3 prostate) was 743 nM, the TGI (PC-3 prostate) was greater than 100000 nM and the GI50 (MOLT-4 leukemia) was 915 nM. The TGI (MOLT-4 leukemia) was 7740 nM, the GI50 (M14 melanoma) was 1030 nM and the TGI (M14 melanoma) was 33200 nM. It also gave a GI50 (SN12C renal) of 364 nM, a TGI (SN12C renal) greater than 100000 nM and a GI50 (SK-MEL-28 melanoma) of 2640 nM. For the same compound, the TGI (SK-MEL-28 melanoma) was greater than 100000 nM, the GI50 (OVCAR-4 ovarian) was 199 nM and the TGI (OVCAR-4 ovarian) was 615 nM. The GI50 (UACC-257 melanoma) was 503 nM, the TGI (UACC-257 melanoma) was 11600 nM and the GI50 (NCI-H23 lung) was 1250 nM. It also gave a TGI (NCI-H23 lung) greater than 100000 nM, a GI50 (SF-295 CNS) of 5300 nM and a TGI (SF-295 CNS) greater than 100000 nM. For the same compound, the GI50 (OVCAR-8 ovarian) was 521 nM, the TGI (OVCAR-8 ovarian) was 9600 nM and the GI50 (MDA-MB-468 breast) was 872 nM. It also gave a TGI (MDA-MB-468 breast) greater than 100000 nM, a GI50 (NCI-H226 lung) of 1310 nM and a TGI (NCI-H226 lung) of 24700 nM. It also gave a GI50 (HCC-2998 colon) of 303 nM, a TGI (HCC-2998 colon) of 2000 nM and a GI50 (KM12 colon) of 1710 nM. For the same compound, the TGI (KM12 colon) was greater than 100000 nM, the GI50 (RPMI-8226 leukemia) was 212 nM and the TGI (RPMI-8226 leukemia) was 819 nM. The GI50 (HCT-15 colon) was 488 nM, the TGI (HCT-15 colon) was 2800 nM and the GI50 (SK-OV-3 ovarian) was 577 nM. It also gave a TGI (SK-OV-3 ovarian) of 45500 nM, a GI50 (A549 NSCLC) of 2390 nM and a TGI (A549 NSCLC) greater than 100000 nM. The GI50 (SNB-75 CNS) was 18800 nM, the TGI (SNB-75 CNS) was greater than 100000 nM and the GI50 (EKVX NSCLC) was 27700 nM. For the same compound, the TGI (EKVX NSCLC) was greater than 100000 nM, the GI50 (LOX IMVI melanoma) was 245 nM and the TGI (LOX IMVI melanoma) was 574 nM. It also gave a GI50 (SR leukemia) of 297 nM, a TGI (SR leukemia) of 14300 nM and a GI50 (OVCAR-3 ovarian) of 421 nM. It also gave a TGI (OVCAR-3 ovarian) of 7130 nM, a GI50 (SF-539 CNS) of 829 nM and a TGI (SF-539 CNS) greater than 100000 nM. The GI50 (SNB-19 CNS) was 922 nM, the TGI (SNB-19 CNS) was 63500 nM and the GI50 (NCI-H460 NSCLC) was 2920 nM. The TGI (NCI-H460 NSCLC) was greater than 100000 nM, the GI50 (SK-MEL-5 melanoma) was 438 nM and the TGI (SK-MEL-5 melanoma) was 8690 nM. For the same compound, the GI50 (CAKI-1 renal) was 479 nM, the TGI (CAKI-1 renal) was greater than 100000 nM and the GI50 (HOP-92 NSCLC) was 11400 nM. It also gave a TGI (HOP-92 NSCLC) greater than 100000 nM, a GI50 (NCI/ADR-RES ovarian) of 3050 nM and a TGI (NCI/ADR-RES ovarian) of 16800 nM. For the same compound, the GI50 (HT29 colon) was 412 nM, the TGI (HT29 colon) was greater than 100000 nM and the GI50 (HCT-116 colon) was 1900 nM. It also gave a TGI (HCT-116 colon) greater than 100000 nM, a GI50 (MCF7 breast) of 269 nM and a TGI (MCF7 breast) greater than 100000 nM. The GI50 (UACC-62 melanoma) was 308 nM, the TGI (UACC-62 melanoma) was greater than 100000 nM and the GI50 (IGROV1 ovarian) was 584 nM. The TGI (IGROV1 ovarian) was 9780 nM, the GI50 (DU-145 prostate) was 8960 nM and the TGI (DU-145 prostate) was greater than 100000 nM. For the same compound, the GI50 (ACHN renal) was 1610 nM, the TGI (ACHN renal) was greater than 100000 nM and the GI50 (BT-549 breast) was 504 nM. The TGI (BT-549 breast) was 11400 nM, the GI50 (A498 renal) was 693 nM and the TGI (A498 renal) was greater than 100000 nM. The GI50 (NCI-H522 lung) was 321 nM, the TGI (NCI-H522 lung) was 2410 nM and the GI50 (MDA-MB-435 melanoma) was 2450 nM. The TGI (MDA-MB-435 melanoma) was 51200 nM, the GI50 (NCI-H322M lung) was 509 nM and the TGI (NCI-H322M lung) was 9510 nM. For the same compound, the GI50 (SF-268 CNS) was 8130 nM, the TGI (SF-268 CNS) was greater than 100000 nM and the GI50 (COLO 205 colon) was 498 nM. For the same compound, the TGI (COLO 205 colon) was 6270 nM, the GI50 (MALME-3M melanoma) was 1910 nM and the TGI (MALME-3M melanoma) was 32500 nM.
